Measurements: patent US20230398080A1, “FLOATING DRUG DELIVERY SYSTEMS COMPRISING CANNABINOIDS” (YISSUM RESEARCH DEVELOPMENT COMP ANY OF THE HEBREW …, priority 2020, published 2023)

Experiment: THC-CBD-Metoprolol intra-colon vs oral administration in the freely moving rat model
Conditions: for absorption through the colon in comparison to PO administration: lipid-based self-nano emulsifying formulation via colonic cannula vs PO, CBD 15 mg/kg, THC 20 or 10 mg/kg

SMILES | absorption through the colon in comparison to PO administration | AUC after administration through the colon in comparison to PO administration (colonic cannula vs PO, metoprolol 20 or 15 mg/kg)
C=C(C)[C@@H]1CCC(C)=C[C@H]1c1c(O)cc(CCCCC)cc1O [CBD, cannabidiol] | practically not absorbed through the colon | –
COCCc1ccc(OCC(O)CNC(C)C)cc1 (stereo not drawn) [Metoprolol] | – | approximately 4 fold
CCCCCc1cc(O)c2c(c1)OC(C)(C)[C@@H]1CCC(C)=C[C@@H]21 [THC, tetrahydrocannabinol] | practically not absorbed through the colon | –
